Data from paper PMC10825183 (Nature Communications, 2024).
Where “and” joins values, the source holds several entries; their conditions need not be identical. Equal values may be shown once. Read-outs that look alike come from different tables or passages of the source.

Legend:
hHCN2 CNBD D698A [1] = target: T1, hHCN2 CNBD D698A (Homo sapiens, UniProt Q9UL51, D698A); settings: cAMP titrant
human HCN2 CNBD ΔDE’ = target: T2, human HCN2 CNBD ΔDE’ (Homo sapiens, UniProt Q9UL51); assay: Isothermal titration calorimetry (ITC), CNBD ΔDE’
T2 sequence (Q9UL51 521-672): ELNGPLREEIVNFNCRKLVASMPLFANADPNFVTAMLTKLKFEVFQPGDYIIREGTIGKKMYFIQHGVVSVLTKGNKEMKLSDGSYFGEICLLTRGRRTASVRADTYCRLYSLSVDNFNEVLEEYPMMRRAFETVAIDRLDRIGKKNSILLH

human HCN2 CNBD ΔE = target: T3, human HCN2 CNBD ΔE (Homo sapiens, UniProt Q9UL51); assay: Isothermal titration calorimetry (ITC), CNBD ΔE; type: binding; settings: mean ± SEM, n = 3
T3 sequence (Q9UL51 521-681): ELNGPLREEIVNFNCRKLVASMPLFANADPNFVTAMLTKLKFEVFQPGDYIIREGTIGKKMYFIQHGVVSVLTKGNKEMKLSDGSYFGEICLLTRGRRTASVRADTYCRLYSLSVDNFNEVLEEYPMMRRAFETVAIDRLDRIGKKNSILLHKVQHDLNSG

[2] = system: native If current in sinoatrial node myocytes; settings: read-out: affinity value for cAMP; ref DiFrancesco and Tortora, Nature, 1991; cited from earlier work
hHCN2 CNBD D698A [3] = target: T1, hHCN2 CNBD D698A; assay: biochemical
rbHCN4 ΔDE (1-718) = rbHCN4 ΔDE (1-718) (Oryctolagus cuniculus, UniProt Q9TV66)
HCN4 = settings: cited from earlier work
rbHCN4 full-length (FL) = target: T4, rbHCN4 full-length (FL) (Oryctolagus cuniculus, UniProt Q9TV66); assay: Whole-cell patch clamp in HEK293T cells, HCN4 full length; type: cell-based, rabbit
T4 construct: The cDNA encoding the full-length rabbit HCN4 was previously cloned in pCI (Promega) mammalian expression vector; expressed in transfected cells; host or cells: HEK293T
T4 sequence (Q9TV66 1-1175): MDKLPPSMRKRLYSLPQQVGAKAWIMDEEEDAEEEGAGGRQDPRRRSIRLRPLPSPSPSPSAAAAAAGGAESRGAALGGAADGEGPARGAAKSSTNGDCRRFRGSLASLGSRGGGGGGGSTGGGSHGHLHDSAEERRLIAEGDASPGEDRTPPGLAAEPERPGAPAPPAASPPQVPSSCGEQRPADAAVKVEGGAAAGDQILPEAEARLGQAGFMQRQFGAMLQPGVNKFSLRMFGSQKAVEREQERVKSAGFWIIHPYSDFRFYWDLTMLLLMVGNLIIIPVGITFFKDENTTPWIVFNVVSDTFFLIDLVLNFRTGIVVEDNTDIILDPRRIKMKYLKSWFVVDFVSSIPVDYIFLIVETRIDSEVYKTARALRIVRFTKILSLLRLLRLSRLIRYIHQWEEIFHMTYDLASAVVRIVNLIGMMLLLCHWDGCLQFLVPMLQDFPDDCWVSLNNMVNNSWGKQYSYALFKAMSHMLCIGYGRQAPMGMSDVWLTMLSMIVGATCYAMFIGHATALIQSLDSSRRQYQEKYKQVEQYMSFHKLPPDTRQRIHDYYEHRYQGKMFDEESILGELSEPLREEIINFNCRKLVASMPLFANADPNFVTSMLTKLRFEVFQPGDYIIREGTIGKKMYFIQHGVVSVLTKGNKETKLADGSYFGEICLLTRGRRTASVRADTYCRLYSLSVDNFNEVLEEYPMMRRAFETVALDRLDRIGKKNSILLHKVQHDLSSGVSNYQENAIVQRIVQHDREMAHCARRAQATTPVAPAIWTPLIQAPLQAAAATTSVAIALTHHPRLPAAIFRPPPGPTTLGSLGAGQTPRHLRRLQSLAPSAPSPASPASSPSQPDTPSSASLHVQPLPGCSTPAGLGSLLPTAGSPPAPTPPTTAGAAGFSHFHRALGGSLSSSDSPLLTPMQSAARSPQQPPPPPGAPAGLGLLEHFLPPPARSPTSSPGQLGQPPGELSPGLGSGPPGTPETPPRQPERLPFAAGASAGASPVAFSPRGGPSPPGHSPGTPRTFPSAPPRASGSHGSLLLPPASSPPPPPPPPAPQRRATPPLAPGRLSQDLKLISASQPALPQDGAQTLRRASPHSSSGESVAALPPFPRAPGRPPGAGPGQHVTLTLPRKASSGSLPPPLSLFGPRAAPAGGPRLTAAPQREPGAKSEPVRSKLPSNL

human HCN2 CNBD ΔC-term = target: T5, human HCN2 CNBD ΔC-term (Homo sapiens, UniProt Q9UL51); assay: Isothermal titration calorimetry (ITC), CNBD ΔC-term; settings: mean ± SEM, n = 3
T5 sequence (Q9UL51 521-706): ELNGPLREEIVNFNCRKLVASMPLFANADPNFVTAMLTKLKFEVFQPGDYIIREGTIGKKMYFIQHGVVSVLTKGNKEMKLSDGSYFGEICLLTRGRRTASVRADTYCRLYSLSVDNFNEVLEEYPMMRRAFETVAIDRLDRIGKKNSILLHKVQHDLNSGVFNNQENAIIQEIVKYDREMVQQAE

human HCN2 CNBD ΔDE = target: T6, human HCN2 CNBD ΔDE (Homo sapiens, UniProt Q9UL51); assay: Isothermal titration calorimetry (ITC), CNBD ΔDE; settings: cAMP titrated into 20 µM CNBD, 25 °C, mean ± SEM, n = 3
T6 sequence (Q9UL51 521-667): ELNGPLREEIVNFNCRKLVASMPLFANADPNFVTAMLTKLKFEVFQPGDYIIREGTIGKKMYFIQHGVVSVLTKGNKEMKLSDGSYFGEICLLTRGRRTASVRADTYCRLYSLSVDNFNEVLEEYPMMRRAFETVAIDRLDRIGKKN

[4] = KD, cAMP titrated into 20 µM CNBD, 25 °C
[5] = 5 µM cAMP in pipette, mean ± SEM
[6] = Hill fit of shift in V1/2 vs cAMP concentration

T1 sequence (Q9UL51 521-706 D698A): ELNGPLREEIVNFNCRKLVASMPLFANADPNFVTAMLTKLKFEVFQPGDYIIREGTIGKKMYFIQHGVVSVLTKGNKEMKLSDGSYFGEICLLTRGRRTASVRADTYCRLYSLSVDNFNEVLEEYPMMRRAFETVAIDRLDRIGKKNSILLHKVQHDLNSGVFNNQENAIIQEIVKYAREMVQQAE

## Nc1ncnc2c1ncn2[C@@H]1O[C@@H]2COP(=O)(O)O[C@H]2[C@H]1O [cAMP, Adenosine 3′,5′-cyclic monophosphate]
hHCN2 CNBD D698A [1]; mean ± SEM, n = 3
  stoichiometry (N): 0.8 ± 0.1
hHCN2 CNBD D698A [1]; single ITC experiment
  N, representative sample (Fig. 4d): 0.7
Human HCN2 CNBD ΔDE’; cAMP titrated into 20 µM CNBD, 25 °C, mean ± SEM, n = 3
  Kd: 1.2 ± 0.03 µM
Human HCN2 CNBD ΔDE’; representative sample (Fig. 2d), cAMP titrant, single ITC experiment
  Kd: 1.2 µM
Human HCN2 CNBD ΔDE’; cAMP titrant, mean ± SEM, n = 3
  stoichiometry (N): 0.8 ± 0.1
Human HCN2 CNBD ΔE; [4]
  Kd: 1.2 ± 0.1 µM
Human HCN2 CNBD ΔE; cAMP titrant
  stoichiometry (N): 1.0 ± 0.1
[2]
  EC50: 0.2 µM
hHCN2 CNBD D698A [3]; KD of individual experiments (source data Fig. 4e), cAMP titrant, unit inferred
  Kd: 1.7 µM and 1.6 µM and 1.3 µM
hHCN2 CNBD D698A [3]; KD, cAMP titrated into 20 µM CNBD, 25 °C, mean ± SEM, n = 3
  Kd: 1.5 ± 0.1 µM
hHCN2 CNBD D698A [3]; KD, representative sample (Fig. 4d), cAMP titrant, single ITC experiment
  Kd: 1 µM
rbHCN4 ΔDE (1-718); [5]
  V1/2 with cAMP: -102.4± 0.6 mV
rbHCN4 ΔDE (1-718); 5 µM cAMP, mean ± SEM
  k (inverse slope factor) with cAMP: 7.6 ± 0.3 mV
rbHCN4 ΔDE (1-718); [6]
  Hill coefficient (nH): 1
HCN4; ref Baruscotti et al, 2017
  EC50: 1.67 µM
HCN4; ref Milanesi et al, 2006
  EC50: 1.53 µM
HCN4; ref Moller et al 2014
  EC50: 0.82 µM
rbHCN4 full-length (FL); 1 µM cAMP in pipette, mean ± SEM
  V1/2 with cAMP: -89.9 ± 1.6 mV
rbHCN4 full-length (FL); 1 µM cAMP, mean ± SEM
  k (inverse slope factor) with cAMP: 11.7 ± 1 mV
rbHCN4 full-length (FL); [5]
  V1/2 with cAMP: -87.5 ± 0.7 mV
rbHCN4 full-length (FL); 5 µM cAMP, mean ± SEM
  k (inverse slope factor) with cAMP: 10.6 ± 0.4 mV
rbHCN4 full-length (FL); 15 µM cAMP in pipette, mean ± SEM
  V1/2 + cAMP: -79.3 ± 0.9 mV
rbHCN4 full-length (FL); 15 µM cAMP, mean ± SEM
  k + cAMP: 10.2 ± 1 mV
rbHCN4 full-length (FL); [6]
  Hill coefficient (nH): 0.9
Human HCN2 CNBD ΔC-term; [4]
  Kd: 0.3 ± 0.01 µM
Human HCN2 CNBD ΔC-term; cAMP titrant
  stoichiometry (N): 0.4 ± 0.1
Human HCN2 CNBD ΔDE
  Kd: 9.5 ± 0.7 µM
